Source: patent US5654420A, “Process for preparing 2'-cyano pyrimidine nucleoside compounds” (Sankyo Company, Limited, priority 1990, dated 1997)
≈ marks a conversion by molar mass, not a printed value. Counter-ions that a name gives are not always drawn.

System: KB human oral epidermoid carcinoma
Test: Antitumor activity in vitro (MTT method, 72 h), KB
Format: cell-based
Settings: 37° C., read-out: IC50 (concentration necessary for inhibiting proliferation of the cells to 50%)
Protocol: Antitumor activity was determined in vitro using a human cancer strain. As the culture medium for the cancer cell, an RPMI1640 solution containing 10% of […] bovine fetal serum 50 μg/ml of kanamycin was used. Cancer cells (1×10^4 cells/ml) were innoculated to 1 ml of the culture liquids containing samples at different concentrations, respectively, and cultured in a carbon dioxide gas incubator at 37° C. for 72 hours.
Viability of the cancer cells was determined by MTT method in which the amount of living cells in the culture liquids containing the sample and that in culture liquids containing no sample (blank group) are measured based on the intensity of the visible light using [3-(4,5-dimethylthiazol-2-yl)-2,5-diphenyl-tetrazolium bromide] which develops color in proportion to the number of living cells. The intensity of antitumor activity was expressed by IC50 value (concentration (μg/ml) necessary for inhibiting proliferation of the cells to 50%). The IC50 value was obtained from a graph illustrating the relationship between % proliferation of the cancer cells in the sample containing group (% relative to the blank group) and the concentration (logalithmic) of the sample.
KB: human oral epidermoid carcinoma

## N#C[C@H]1[C@H](O)[C@@H](CO)O[C@H]1n1ccc(N)nc1=O [Example 9, 1-(2'-Cyano-2'-deoxy-β-D-arabinofuranosyl)cytosine monohydrochloride]
  IC50: 15 µg/mL

## Cc1cn([C@@H]2O[C@H](CO)C=C2C#N)c(=O)[nH]c1=O [Example 12, 1-(2'-Cyano-2',3'-deoxy-2',3'-didehydro-β-D-ribofuranosyl)thymine]
  IC50: 7.6 µg/mL (≈ 30.5 µM)
